TGI data for 20 compounds are collected here from PubChem BioAssay (NCI).

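Test compounds were applied to cells in 96-well plates for 48 hours at 5 doses. TGI is the concentration that stops growth completely.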

Test systems include RXF 393 renal; ACHN renal; NCI/ADR-RES ovarian; SR leukemia; HS 578T breast; SF-295 CNS; HCC-2998 colon; UACC-62 melanoma; MOLT-4 leukemia; A498 renal.
What all share (assay): inhibition of tumour cell growth, NCI panel, 48 h

Turning to `COC(=O)C12CCC(C(=O)OC)(Cc3c(c4ccccc4n3S(=O)(=O)c3ccccc3)C1)C2=O` (stereo not drawn), the TGI with RXF 393 renal was 24.1 µM; in the experiment with ACHN renal it was over 100 µM; in the experiment with NCI/ADR-RES ovarian, over 100 µM; with SR leukemia, over 100 µM; in the experiment on HS 578T breast, over 84.7 µM; in the experiment with SF-295 CNS it was over 100 µM. In addition, the TGI in the experiment on HCC-2998 colon, in the experiment on UACC-62 melanoma, in the experiment on MOLT-4 leukemia and in the experiment on A498 renal was over 100 µM each time.
For `CC(C)(C)OC(=O)N1C(C2=COc3ccccc3O2)=COc2ccccc21`, the TGI in the experiment with RXF 393 renal is 22.5 µM; in the experiment on ACHN renal it was 75.3 µM; in the experiment on NCI/ADR-RES ovarian, 82.3 µM; in the experiment on SR leukemia it was 53.3 µM; with HS 578T breast, over 100 µM; with SF-295 CNS, 83.5 µM. Also, the TGI in the experiment with HCC-2998 colon is 37.2 µM; with UACC-62 melanoma, 32.6 µM; with MOLT-4 leukemia, 54 µM; in the experiment with A498 renal, 40.2 µM.
Regarding `C/C(Cl)=N\OC(=O)Nc1ccc([N+](=O)[O-])cc1`, the TGI with RXF 393 renal was 30.4 µM; in the experiment with ACHN renal, 9.2 µM; in the experiment with NCI/ADR-RES ovarian it was 29.3 µM; in the experiment on SR leukemia, 74.2 µM; in the experiment on HS 578T breast, 72.5 µM; with SF-295 CNS it was 31.8 µM. The TGI in the experiment with HCC-2998 colon turned out to be 29.8 µM; in the experiment with UACC-62 melanoma it was 48.6 µM; with MOLT-4 leukemia, 3.97 µM; in the experiment on A498 renal it was 30.5 µM.
Take `NNC(N)=Nc1cccc2ccccc12`: the TGI in the experiment on RXF 393 renal, in the experiment on ACHN renal, in the experiment on NCI/ADR-RES ovarian, with SR leukemia, with HS 578T breast and in the experiment with SF-295 CNS was over 100 µM throughout. The TGI in the experiment with HCC-2998 colon, in the experiment with UACC-62 melanoma, in the experiment on MOLT-4 leukemia and in the experiment on A498 renal was over 100 µM each time.
As to `O=c1oc2ncccc2n1Cc1ccc([N+](=O)[O-])cc1`, the TGI in the experiment on RXF 393 renal, in the experiment with ACHN renal, in the experiment on NCI/ADR-RES ovarian, in the experiment on SR leukemia, in the experiment on HS 578T breast and in the experiment with SF-295 CNS was over 100 µM each time. Moreover, the TGI in the experiment with UACC-62 melanoma, in the experiment with MOLT-4 leukemia and with A498 renal was over 100 µM each time.
For the compound `CN1CN(c2ccccc2)C2(CCNCC2)C1=O`, the TGI in the experiment on RXF 393 renal, with ACHN renal, in the experiment with NCI/ADR-RES ovarian, in the experiment with SR leukemia, in the experiment on HS 578T breast and in the experiment with SF-295 CNS was over 100 µM each time. The TGI with HCC-2998 colon, with UACC-62 melanoma, with MOLT-4 leukemia and in the experiment on A498 renal was over 100 µM each time.
On to `CCCCC1Cc2cc(O)ccc2-c2n1c1cc(O)ccc1[n+]2C` (stereo not drawn) (tested in a mixture with another compound), for which the TGI in the experiment with RXF 393 renal was over 90.3 µM; in the experiment with ACHN renal, 98.7 µM; in the experiment on NCI/ADR-RES ovarian, over 100 µM; in the experiment on SR leukemia it was over 100 µM; in the experiment on HS 578T breast, over 51.4 µM; in the experiment on SF-295 CNS, over 60.1 µM. Moreover, the TGI with HCC-2998 colon was over 100 µM; in the experiment with UACC-62 melanoma, over 81.5 µM; in the experiment on MOLT-4 leukemia, over 100 µM; with A498 renal, over 100 µM.
For the compound `CC1=NN(c2nc(N)nc(CS(C)(=O)=O)n2)C(C)(C)C1`, the TGI with RXF 393 renal, in the experiment on ACHN renal, in the experiment with NCI/ADR-RES ovarian, in the experiment on SR leukemia, in the experiment on HS 578T breast and with SF-295 CNS was over 100 µM each time. For the same compound, the TGI in the experiment with HCC-2998 colon, in the experiment on UACC-62 melanoma, with MOLT-4 leukemia and in the experiment with A498 renal was over 100 µM in each case.
Turning to `C=C1c2nc3ccccc3n2C=C(c2ccc(Cl)cc2)N1c1ccc(OCCN2CCOCC2)cc1`, the TGI was over 100 µM with RXF 393 renal; over 100 µM in the experiment with ACHN renal; over 100 µM with NCI/ADR-RES ovarian; 42 µM with SR leukemia; over 100 µM in the experiment with HS 578T breast; over 100 µM in the experiment on HCC-2998 colon. The TGI with UACC-62 melanoma is 99.6 µM; in the experiment on A498 renal, over 100 µM.
On to `Cc1csc2c(P(=O)(OC(C)C)OC(C)C)c(-c3ccccc3)cn12`, for which the TGI in the experiment on RXF 393 renal was 33.7 µM; in the experiment with ACHN renal, 28.3 µM; with NCI/ADR-RES ovarian it was 36.2 µM; with SR leukemia, 36.7 µM; in the experiment with HS 578T breast, 39.7 µM; in the experiment on SF-295 CNS it was 31.1 µM. For the same compound, the TGI in the experiment with HCC-2998 colon worked out at 28.5 µM; in the experiment with UACC-62 melanoma, 20 µM; in the experiment on MOLT-4 leukemia it was 31.4 µM; with A498 renal, 34.1 µM.
`CCOC(=O)c1ccc(N=C2SC(=S)N(c3ccc(F)cc3)C2=Nc2ccc(C(=O)OCC)cc2)cc1`: the TGI with RXF 393 renal was 23.3 µM; in the experiment with ACHN renal, 29.4 µM; in the experiment on NCI/ADR-RES ovarian, 44.8 µM; with SR leukemia, 29.3 µM; in the experiment with HS 578T breast it was 91.7 µM; with SF-295 CNS it was over 100 µM. The TGI is over 80.5 µM in the experiment on HCC-2998 colon, 21.5 µM in the experiment on UACC-62 melanoma, 35.1 µM in the experiment on MOLT-4 leukemia and over 100 µM with A498 renal.
Turning to `NS(=O)(=O)c1nnc(NC(=O)CCC(=O)O)s1`, the TGI with RXF 393 renal, in the experiment on ACHN renal, in the experiment with NCI/ADR-RES ovarian, in the experiment on SR leukemia, in the experiment on HS 578T breast and in the experiment on SF-295 CNS was over 100 µM throughout. Moreover, the TGI in the experiment with HCC-2998 colon, with UACC-62 melanoma, in the experiment on MOLT-4 leukemia and in the experiment with A498 renal was over 100 µM each time.
For `COc1ccc2c(c1)/C(=C(\C(Cl)=C(\Cl)N1CCCCC1)[N+](=O)[O-])N2`, the TGI in the experiment on RXF 393 renal, with ACHN renal, in the experiment on NCI/ADR-RES ovarian, in the experiment on SR leukemia, with HS 578T breast and with SF-295 CNS was over 100 µM each time. For the same compound, the TGI in the experiment on HCC-2998 colon, with UACC-62 melanoma, in the experiment with MOLT-4 leukemia and in the experiment on A498 renal was over 100 µM each time.
As for `COc1cc2c(cc1C)NC(=O)/C2=C/c1c(Cl)[nH]c2cc(C)c(OC)cc12`, the TGI was 22.1 µM with RXF 393 renal; 18.4 µM in the experiment on ACHN renal; 13.5 µM in the experiment with NCI/ADR-RES ovarian; 12 µM with SR leukemia; 46 µM with HS 578T breast; 6.18 µM with SF-295 CNS. Besides, the TGI was 11 µM in the experiment on HCC-2998 colon, 19.5 µM in the experiment with UACC-62 melanoma, 17.8 µM with MOLT-4 leukemia and 23.1 µM in the experiment on A498 renal.
For `C=C1CC(OC(C)=O)/C=C(/C)CCC(C(C)(C)O)CC1O` (stereo not drawn), the TGI in the experiment with RXF 393 renal, in the experiment on ACHN renal, in the experiment with NCI/ADR-RES ovarian, in the experiment on SR leukemia, in the experiment on HS 578T breast and in the experiment on SF-295 CNS was over 100 µM each time. Moreover, the TGI in the experiment on HCC-2998 colon, with UACC-62 melanoma, with MOLT-4 leukemia and in the experiment with A498 renal was over 100 µM in each case.
For `COc1ccc2c(c1)/C(=C(\C(Cl)=C(Cl)Cl)[N+](=O)[O-])N2`, the TGI was over 100 µM in the experiment on RXF 393 renal; over 100 µM with ACHN renal; over 100 µM in the experiment on NCI/ADR-RES ovarian; 49.3 µM in the experiment with SR leukemia; over 100 µM with HS 578T breast; over 100 µM in the experiment on SF-295 CNS. Further, the TGI is over 100 µM in the experiment on HCC-2998 colon, over 100 µM with UACC-62 melanoma, 97.1 µM in the experiment with MOLT-4 leukemia and over 100 µM in the experiment on A498 renal.
`C1CNCCN2CCCNCCN(C1)CC2`: the TGI in the experiment with RXF 393 renal, in the experiment on ACHN renal, in the experiment on NCI/ADR-RES ovarian, with SR leukemia, with HS 578T breast and in the experiment on SF-295 CNS was over 100 µM each time. In addition, the TGI with UACC-62 melanoma, in the experiment with MOLT-4 leukemia and in the experiment with A498 renal was over 100 µM throughout.
Take `CCOC(=O)C(Cc1ccc2c(c1)CCC2)(Cc1ccc2c(c1)CCC2)C(=O)OCC`: the TGI in the experiment on RXF 393 renal is 89.9 µM; in the experiment on ACHN renal it was over 100 µM; in the experiment with NCI/ADR-RES ovarian, over 100 µM; in the experiment on SR leukemia, 55.1 µM; in the experiment on HS 578T breast, over 100 µM; in the experiment with SF-295 CNS, over 100 µM. Further, the TGI in the experiment with HCC-2998 colon was over 100 µM; in the experiment with MOLT-4 leukemia, 78.4 µM; in the experiment with A498 renal it was over 100 µM.
For the compound `COc1ccc2nc(-c3ccc(OC(=O)N(C)C)cc3)cn2c1`, the TGI in the experiment on ACHN renal, in the experiment on NCI/ADR-RES ovarian, with SR leukemia, in the experiment on HS 578T breast, with SF-295 CNS and in the experiment on HCC-2998 colon was over 100 µM throughout. Also, the TGI with UACC-62 melanoma, with MOLT-4 leukemia and in the experiment on A498 renal was over 100 µM in each case.
Consider `COc1cc(Cn2c3c(c4c(CN(C)C)c(O)ccc42)C(=O)c2ccccc2C3=O)cc(OC)c1`, for which the TGI in the experiment on ACHN renal was 29.6 µM; with NCI/ADR-RES ovarian it was 34.8 µM; with SR leukemia, 36.5 µM; in the experiment with HS 578T breast, 43.9 µM; in the experiment on SF-295 CNS, 44 µM; in the experiment with HCC-2998 colon, 34.5 µM. Further, the TGI in the experiment with UACC-62 melanoma was found to be 51.9 µM; in the experiment with MOLT-4 leukemia, 88.9 µM; in the experiment on A498 renal, 22.4 µM.
